From US12551482B2, “Aurora kinase inhibitors” (The Regents of the University of California, priority 2013, dated 2026)
Entries after “also recorded” stand apart in the source; their conditions may differ. One block for each molecule: values may come before it.

Experiments:
MYCN [1] = experiment: MYCN protein by western blot in SK-N-BE(2) cells; type: cell-based; details: for efficacy against MYCN (loss of MYCN protein), in words: 24 hrs, 1 μM of compound (FIG. 3)
Protocol: (§1) Neuroblastoma tumor cell lines were obtained from the University of California San Francisco Cell Culture Facility (Kelly, SK-N-BE2, and SH-EP). SMS-KCN, SHEP MYCN^wt and MYCN^T58A/S62A cells were obtained. All cells were grown in RPMI with 10% FBS. Neuroblastoma cells were harvested and lysed with Cell Signaling Lysis buffer+1% SDS, sonicated and supernatants boiled in LDS sample buffer (Invitrogen). Western blots were performed as described previously (Chanthery et al., 2012), with primary antibodies to MYCN (ab24193, Abcam), Histone H3, P-Histone H3 (S10), Aurora A (Cell signaling), and GAPDH (Millipore). Western blot quantitation performed with ImageJ software.

Aurora A = molecular target: T1, Aurora A (Homo sapiens, UniProt O14965, T287D); experiment: In vitro kinase assay for Aurora A (32P ATP); type: biochemical
T1 construct: Aurora A (residues 123-390, T287D) was cloned into a pET28a plasmid; hexahistidine (PreScission Protease-cleavable) (cleaved yes); made in house; host or cells: E. coli BL-21(DE3)
T1 sequence (O14965 123-390 T287D): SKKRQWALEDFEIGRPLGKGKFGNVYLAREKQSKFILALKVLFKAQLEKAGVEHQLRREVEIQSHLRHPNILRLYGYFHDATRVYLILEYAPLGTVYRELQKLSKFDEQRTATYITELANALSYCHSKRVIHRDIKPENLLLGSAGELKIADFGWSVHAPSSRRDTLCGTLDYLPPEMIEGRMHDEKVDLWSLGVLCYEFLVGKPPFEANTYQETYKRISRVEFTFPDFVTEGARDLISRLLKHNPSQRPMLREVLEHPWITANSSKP
Protocol: Kinase assays for Aurora A were performed in 10 mM HEPES pH 7.5, 10 mM MgCl2, 0.01% Triton, 4% v/v DMSO, 5 nM kinase, and either 4 μM histone H3 or 30 μM synthetic peptide [sequence] (Elim Biopharmaceuticals, Inc). Drug concentration ranged from 2000-5 nM. Reactions were preincubated with inhibitor for ten minutes before initiation by addition of 100 μM nonradioactive ATP supplemented with ^32P ATP (1 mCi in 200 μL, Perkin-Elmer, 0.8 ρCi per reaction). Reactions were quenched at 10 min by spotting 3 μL quantity onto P81 phosphocellulose (Whatman), which were washed 5×5′ in 0.1% phosphoric acid and dried. Radioactivity was measured by phosphorimaging and recorded on a Typhoon fluorescence imager (Molecular Dynamics).

p-Histone H3 = p-Histone H3 by immunoblot in compound-treated cells (structure-activity); type: cell-based
Protocol: as §1

MYCN [2] = experiment: MYCN levels in JM134- vs NHC532-treated cells (FIG. 10); type: cell-based
[3] = tested on: MYCN amplified neuroblastoma cells; experiment: Cell cycle by flow cytometry; type: cell-based
Protocol: (§2) Neuroblastoma cells were treated for the indicated time, trypsinized, washed, stained with Dylight 800 at 0.3 μg/mL (Pierce, 46421), fixed with 1.5% PFA, and permeabilized with 100% methanol. Cells were then stained with antibodies against p-MPM2 (Millipore, 16-155), p-pan-Aurora (Cell Signaling, 2914), MYCN (Thermo, PA5-17403), rabbit IgG (Invitrogen, A10542), or mouse IgG (BioLegend, 405307). Cells were stained with DAPI at 0.3 μg/mL (Invitrogen, D21490) and analyzed on the BD LSR II flow cytometer. For cell cycle analysis, cells were stimulated with EdU for 2 hours prior to harvest, then probed using the Click-iT EdU Flow Cytometry Assay Kit (Invitrogen, C10424). Cells were stained with propidium iodide (BD, 556547) and analyzed on the BD FACSCalibur flow cytometer. Data was gated using Cytobank. For viability studies, neuroblastoma cells were plated in 96-well plates at a density of 1,000 cells/well for SHEP or 4,000 cells/well for Kelly or SK—N-BE2 cells, then incubated with indicated concentrations of drug for 72 hours at 37° C. Plates were frozen at −80° C. to induce cell lysis. CyQUANT reagent mixture (Invitrogen, C7026) was added to thawed plates, then fluorescence was measured. Alternatively, resazurin (Sigma-Aldrich, R7017) was added directly to wells following drug treatment then incubated for 4 hours at 37° C. prior to measuring fluorescence. Data was analyzed using GraphPad Prism software.

tumor-derived cell lines = experiment: Screen of panel of tumor-derived, genetically characterized cell lines; type: cell-based; details: Wilcoxon Rank Sum test
[4] = delivered at the same dose (20 mg/kg); cited from earlier work
[5] = tested on: Kelly MYCN-amplified neuroblastoma cells; experiment: Viability at 72 hrs, CyQUANT assay; type: cell-based; details: FIG. 1F, read-out: cellular EC50 at 72 hrs
Protocol: as §2, with “Plates were frozen at −80° C. to induce cell lysis.” left out

Aurora A protein = molecular target: T2, Aurora A protein (Homo sapiens, UniProt O14965); experiment: Dose response immunoblot for Aurora A protein in MYCN-amplified neuroblastoma cell lines; type: cell-based; details: across cell lines (FIGS. 1D and 7)
T2 construct: endogenous in cells; host or cells: SK-N-BE(2), SMS-KCN, Kelly neuroblastoma cells
T2 sequence (O14965 whole entry): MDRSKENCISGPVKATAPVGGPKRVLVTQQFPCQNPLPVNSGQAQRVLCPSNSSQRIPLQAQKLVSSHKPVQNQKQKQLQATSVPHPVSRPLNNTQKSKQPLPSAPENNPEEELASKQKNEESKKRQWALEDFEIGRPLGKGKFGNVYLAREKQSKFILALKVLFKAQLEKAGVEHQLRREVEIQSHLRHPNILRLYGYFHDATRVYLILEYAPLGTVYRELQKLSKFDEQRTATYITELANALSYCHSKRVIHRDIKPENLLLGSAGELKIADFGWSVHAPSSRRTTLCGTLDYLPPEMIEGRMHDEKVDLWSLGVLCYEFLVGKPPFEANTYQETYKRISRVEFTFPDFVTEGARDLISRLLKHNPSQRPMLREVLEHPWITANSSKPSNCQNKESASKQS

MYCN [6] = experiment: Screen of Kelly MYCN-amplified cells, western blot for MYCN; type: cell-based; details: 1 μM, 24 hrs
Protocol: as §1
(§3) To test whether this panel of 32 putative conformation-disrupting Aurora A inhibitors would destabilize MYCN, initially Kelly MYCN-amplified neuroblastoma cells were treated with candidate inhibitors and MYCN protein was measured by western blot. Phosphorylation of Histone H3, a known substrate for Aurora A and B and a marker for mitosis, was also assessed. FIGS. 1B and 5 show decreased levels of both MYCN protein and p-Histone H3 in response to several members of the screening panel (quantitated in FIG. 1).

MYCN-Aurora A complex = molecular target: T3, MYCN-Aurora A complex (Homo sapiens, UniProt O14965); experiment: Pulldown of MYCN and immunoblot for Aurora A; type: cell-based; details: MYCN-amplified IMR32 cells, 4 hrs MG-132, 2 hrs drug, increasing concentrations
T3 construct: Representative immunoprecipitation of MYCN and immunoblots from MYCN-amplified IMR32 cells; endogenous in cells
T3 sequence (O14965 whole entry, one chain of several): as the sequence (O14965 whole entry) above

phospho-histone H3 = experiment: Screen of Kelly MYCN-amplified cells, western blot for phospho-histone H3; type: cell-based; details: 1 μM, 24 hrs
Protocol: as §1, §3

phospho-pan-Aurora = experiment: Phospho-pan-Aurora by flow cytometry; type: cell-based; details: 1 μM, 6 hrs (FIG. 6C)
Protocol: as §2

P-Histone H3 (S10) = experiment: Dose response immunoblot for phosphorylation of Histone H3 (S10) in MYCN-amplified neuroblastoma cell lines; type: cell-based; details: FIGS. 1D and 7
Protocol: as §1

MYCN [7] = experiment: Dose response immunoblot for MYCN in MYCN-amplified neuroblastoma cell lines (SK-N-BE(2), SMS-KCN, Kelly); type: cell-based; details: multiple cell lines, 24 hrs (FIGS. 1D and 7)
Protocol: as §1

MYCN [8] = experiment: MYCN protein by immunoblot in SHEP cells expressing MYCN; type: cell-based; details: SHEP cells expressing MYCNWT, 24 hrs, increasing concentrations (FIG. 12C)
Protocol: as §1
MYCN is believed to be sequentially phosphorylated at S62/T58 before it is targeted for degradation by ubiquitination, and only phosphorylated, ubiquitinated MYCN is protected from degradation by Aurora A (Gustafson and Weiss, 2010; Otto et al., 2009).

Compound: Cc1cc(Nc2cc(C3CCCC3)[nH]n2)nc(Nc2ccc(NC(=O)Nc3cccc(C(F)(F)F)c3)cc2)n1 [CD15, 1-(4-((4-((5-cyclopentyl-1H-pyrazol-3-yl)amino)-6-methylpyrimidin-2-yl)amino)phenyl)-3-(3-(trifluoromethyl)phenyl)urea]
efficacy against MYCN (loss of MYCN protein), in words (MYCN [1]): maintained both cell-free potency and efficacy against MYCN
potency against Aurora A (biochemical, cell-free), in words (Aurora A): maintained both cell-free potency and efficacy against MYCN

Compound: Cc1cc(Nc2cc(C3CCCCC3)[nH]n2)nc(Nc2ccc(NC(=O)Nc3cccc(C(F)(F)F)c3)cc2)n1 [CD22, 3-[4-({4-[(5-cyclohexyl-1H-pyrazol-3-yl)amino]-6-methylpyrimidin-2-yl}amino)phenyl]-1-[3-(trifluoromethyl)phenyl]urea]
efficacy against MYCN (loss of MYCN protein), in words (MYCN [1]): lost both potency against Aurora A and efficacy against MYCN
potency against Aurora A (biochemical, cell-free), in words (Aurora A): lost both potency against Aurora A and efficacy against MYCN

Compound: Cc1cc(Nc2cc(C3CCCCC3)[nH]n2)nc(Nc2ccc(NC(=O)Nc3ccccc3)cc2)n1 [CD24, 3-[4-({4-[(5-cyclohexyl-1H-pyrazol-3-yl)amino]-6-methylpyrimidin-2-yl}amino)phenyl]-1-phenylurea]
efficacy against MYCN (loss of MYCN protein), in words (MYCN [1]): lost both potency against Aurora A and efficacy against MYCN
potency against Aurora A (biochemical, cell-free), in words (Aurora A): lost both potency against Aurora A and efficacy against MYCN

Compound: O=C(Nc1ccccc1)Nc1ccc(Nc2nccc(Nc3cc(C4CCCC4)[nH]n3)n2)cc1 [CD25, 3-[4-({4-[(5-cyclopentyl-1H-pyrazol-3-yl)amino]pyrimidin-2-yl}amino)phenyl]-1-phenylurea]
efficacy against MYCN (loss of MYCN protein), in words (MYCN [1]): less effective than CD532 in driving MYCN loss
potency against Aurora A (biochemical, cell-free), in words (Aurora A): retained potency against Aurora Kinase A activity
Histone H3 phosphorylation (p-Histone H3; SK-N-BE(2) cells, 24 hrs, 1 μM (FIG. 3D)): loss of Histone H3 phosphorylation

increase in biochemical IC50 against Aurora A compared to NHC532 (CD532) (Aurora A): 5 fold
potency against Aurora A (biochemical, cell-free), in words (Aurora A): decreased binding affinity to Aurora A
Compound: O=C(Nc1ccc(Nc2nccc(Nc3cc(-c4ccco4)[nH]n3)n2)cc1)Nc1cccc(C(F)(F)F)c1 [JM134, 1-(4-((4-((5-(furan-2-yl)-1H-pyrazol-3-yl)amino)pyrimidin-2-yl)amino)phenyl)-3-(3-(trifluoromethyl)phenyl)urea]
MYCN levels compared to NHC532 (CD532) (MYCN [2]): still decreases MYCN levels (though not as completely)
level of p-Histone H3 compared to NHC532-treated cells (p-Histone H3; FIG. 10): higher level of p-Histone H3

Compound: Cc1sc2c(c1C)C(c1ccc(Cl)cc1)=N[C@@H](CC(=O)OC(C)(C)C)c1nnc(C)n1-2 [JQ1, reference compound]
cell cycle effect ([3]; 24 hrs of treatment): blockade of S-phase entry and accumulation of cells in G0/G1
susceptibility of MYCN amplified vs non-amplified cell lines (tumor-derived cell lines): significantly more susceptible to JQ1 than non-amplified lines

EC50 [5]: 33.9 nM
Compound: COc1cc(Nc2ncc3c(n2)-c2ccc(Cl)cc2C(c2c(F)cccc2OC)=NC3)ccc1C(=O)O [MLN8237]
time dependence of MYCN protein loss (MYCN [1]; 1 μM, time course (FIG. 12A)): similarly rapid, but much more modest decrease in levels of MYCN protein that does not change over time
cell cycle effect ([3]; 4 or 6 hrs of treatment): G2/M arrest
AUC0-24 [4]: 78.4 µM·h
Aurora A protein level (Aurora A protein): upregulated or had little effect on Aurora A protein
MYCN protein level (MYCN [6]): much more modest effects on levels of MYCN protein
MYCN-Aurora A interaction (MYCN-Aurora A complex): partial loss of interaction; also recorded: only modestly disrupted this interaction
p-Histone H3 level (phospho-histone H3): blocked Histone H3 phosphorylation at 1 μM
phospho-pan-Aurora (phospho-pan-Aurora): loss of phospho-pan-Aurora
phosphorylation of Histone H3 at S10, dose response (P-Histone H3 (S10)): initial increase in S10 phosphorylation at lower concentrations, followed by a sharp drop at higher concentrations
MYCN protein, dose response (MYCN [7]): little or no response to high concentrations; also recorded: little loss of MYCN protein even at doses 100 to 1000 times greater than their IC50 values for Aurora A

Compound: Cc1cc(Nc2cc(N3CCN(C)CC3)nc(Sc3ccc(NC(=O)C4CC4)cc3)n2)n[nH]1 [VX-680]
cell cycle effect ([3]; 4 or 6 hrs of treatment): G2/M arrest
wild-type MYCN protein (MYCN [8]): little effect on MYCN protein levels
MYCN protein level (MYCN [6]): much more modest effects on levels of MYCN protein
p-Histone H3 level (phospho-histone H3): blocked Histone H3 phosphorylation at 1 μM
phospho-pan-Aurora (phospho-pan-Aurora): loss of phospho-pan-Aurora
phosphorylation of Histone H3 at S10, dose response (P-Histone H3 (S10)): abrogates phosphorylation of Histone H3 at S10
MYCN protein, dose response (MYCN [7]): little loss of MYCN protein even at doses 100 to 1000 times greater than their IC50 values for Aurora A
